Measured values taken from US10670605B2, “Cysteine reactive probes and uses thereof” (The Scripps Research Institute, priority 2015, dated 2020).
Counter-ions that a name gives are not always drawn.

Assays:
Assay in all cases: isoTOP-ABPP of compound-treated primary human T cells
Assay type in all cases: cell-based
[1] = target: T1, Cys residues in primary human T cells (Homo sapiens, UniProt Q96GW9); details: MARS2 C425 (Q96GW9)
T1 sequence (Q96GW9 30-593): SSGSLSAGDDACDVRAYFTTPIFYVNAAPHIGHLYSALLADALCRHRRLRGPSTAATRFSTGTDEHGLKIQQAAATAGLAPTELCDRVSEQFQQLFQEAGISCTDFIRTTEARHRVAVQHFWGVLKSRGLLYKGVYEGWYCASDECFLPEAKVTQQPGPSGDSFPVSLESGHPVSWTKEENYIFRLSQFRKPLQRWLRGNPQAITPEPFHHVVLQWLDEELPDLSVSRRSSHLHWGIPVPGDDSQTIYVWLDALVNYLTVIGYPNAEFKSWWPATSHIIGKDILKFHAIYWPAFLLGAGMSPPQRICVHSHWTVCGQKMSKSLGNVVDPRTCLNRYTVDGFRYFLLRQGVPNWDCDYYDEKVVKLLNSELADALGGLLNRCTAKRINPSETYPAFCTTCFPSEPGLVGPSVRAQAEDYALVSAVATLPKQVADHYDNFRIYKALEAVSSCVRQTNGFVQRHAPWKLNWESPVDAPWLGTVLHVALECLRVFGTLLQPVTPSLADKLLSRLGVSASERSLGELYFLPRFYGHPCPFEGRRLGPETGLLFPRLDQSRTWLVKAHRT

[2] = target: T2, Cys residues in primary human T cells (Homo sapiens, UniProt P29590); details: PML C479 (P29590)
T2 sequence (P29590 1-882): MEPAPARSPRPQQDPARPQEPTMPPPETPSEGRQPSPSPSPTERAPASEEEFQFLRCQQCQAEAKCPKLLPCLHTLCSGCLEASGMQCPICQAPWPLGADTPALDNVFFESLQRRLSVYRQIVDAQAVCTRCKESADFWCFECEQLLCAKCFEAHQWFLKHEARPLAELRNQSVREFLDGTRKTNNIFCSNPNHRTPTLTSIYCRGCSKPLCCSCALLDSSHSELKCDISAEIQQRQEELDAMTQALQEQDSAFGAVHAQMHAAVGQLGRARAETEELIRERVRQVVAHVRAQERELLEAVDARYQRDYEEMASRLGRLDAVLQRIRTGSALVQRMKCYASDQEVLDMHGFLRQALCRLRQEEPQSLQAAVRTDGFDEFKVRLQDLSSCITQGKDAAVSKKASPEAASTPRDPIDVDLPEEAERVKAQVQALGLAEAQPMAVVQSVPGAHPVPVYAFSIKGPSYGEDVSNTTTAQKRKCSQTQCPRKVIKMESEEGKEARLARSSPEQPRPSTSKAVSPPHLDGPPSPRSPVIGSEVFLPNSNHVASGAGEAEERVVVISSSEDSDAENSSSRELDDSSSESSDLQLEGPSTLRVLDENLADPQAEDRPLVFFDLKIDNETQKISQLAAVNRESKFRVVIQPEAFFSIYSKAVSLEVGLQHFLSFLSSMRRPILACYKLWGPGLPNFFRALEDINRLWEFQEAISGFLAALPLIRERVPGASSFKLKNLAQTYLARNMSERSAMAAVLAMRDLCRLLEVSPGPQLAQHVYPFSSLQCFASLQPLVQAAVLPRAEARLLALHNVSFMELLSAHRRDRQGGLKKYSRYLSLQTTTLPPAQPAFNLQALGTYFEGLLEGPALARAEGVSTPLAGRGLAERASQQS

[3] = target: Cys residues in primary human T cells (Homo sapiens, UniProt Q8N2G8); details: GHDC C502 (Q8N2G8)
[4] = target: Cys residues in primary human T cells (Homo sapiens, UniProt Q14005); details: IL16 C1004 (Q14005)
[5] = target: Cys residues in primary human T cells (Homo sapiens, UniProt O14976); details: GAK C87 (O14976)
[6] = target: Cys residues in primary human T cells (Homo sapiens, UniProt Q8WXH0); details: SYNE2 C553 (Q8WXH0)
[7] = target: Cys residues in primary human T cells (Homo sapiens, UniProt Q96FV9); details: THOC1 C49 (Q96FV9)
[8] = target: T3, Cys residues in primary human T cells (Homo sapiens, UniProt Q16548)
T3 sequence (Q16548 1-175): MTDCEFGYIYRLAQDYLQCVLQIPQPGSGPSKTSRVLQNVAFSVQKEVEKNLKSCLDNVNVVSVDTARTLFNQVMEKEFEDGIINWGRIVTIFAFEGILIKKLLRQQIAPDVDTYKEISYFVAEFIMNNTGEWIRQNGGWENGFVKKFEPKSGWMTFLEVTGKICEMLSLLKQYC

Chain of Cys residues in primary human T cells (Homo sapiens, UniProt Q14005) (Q14005 whole entry): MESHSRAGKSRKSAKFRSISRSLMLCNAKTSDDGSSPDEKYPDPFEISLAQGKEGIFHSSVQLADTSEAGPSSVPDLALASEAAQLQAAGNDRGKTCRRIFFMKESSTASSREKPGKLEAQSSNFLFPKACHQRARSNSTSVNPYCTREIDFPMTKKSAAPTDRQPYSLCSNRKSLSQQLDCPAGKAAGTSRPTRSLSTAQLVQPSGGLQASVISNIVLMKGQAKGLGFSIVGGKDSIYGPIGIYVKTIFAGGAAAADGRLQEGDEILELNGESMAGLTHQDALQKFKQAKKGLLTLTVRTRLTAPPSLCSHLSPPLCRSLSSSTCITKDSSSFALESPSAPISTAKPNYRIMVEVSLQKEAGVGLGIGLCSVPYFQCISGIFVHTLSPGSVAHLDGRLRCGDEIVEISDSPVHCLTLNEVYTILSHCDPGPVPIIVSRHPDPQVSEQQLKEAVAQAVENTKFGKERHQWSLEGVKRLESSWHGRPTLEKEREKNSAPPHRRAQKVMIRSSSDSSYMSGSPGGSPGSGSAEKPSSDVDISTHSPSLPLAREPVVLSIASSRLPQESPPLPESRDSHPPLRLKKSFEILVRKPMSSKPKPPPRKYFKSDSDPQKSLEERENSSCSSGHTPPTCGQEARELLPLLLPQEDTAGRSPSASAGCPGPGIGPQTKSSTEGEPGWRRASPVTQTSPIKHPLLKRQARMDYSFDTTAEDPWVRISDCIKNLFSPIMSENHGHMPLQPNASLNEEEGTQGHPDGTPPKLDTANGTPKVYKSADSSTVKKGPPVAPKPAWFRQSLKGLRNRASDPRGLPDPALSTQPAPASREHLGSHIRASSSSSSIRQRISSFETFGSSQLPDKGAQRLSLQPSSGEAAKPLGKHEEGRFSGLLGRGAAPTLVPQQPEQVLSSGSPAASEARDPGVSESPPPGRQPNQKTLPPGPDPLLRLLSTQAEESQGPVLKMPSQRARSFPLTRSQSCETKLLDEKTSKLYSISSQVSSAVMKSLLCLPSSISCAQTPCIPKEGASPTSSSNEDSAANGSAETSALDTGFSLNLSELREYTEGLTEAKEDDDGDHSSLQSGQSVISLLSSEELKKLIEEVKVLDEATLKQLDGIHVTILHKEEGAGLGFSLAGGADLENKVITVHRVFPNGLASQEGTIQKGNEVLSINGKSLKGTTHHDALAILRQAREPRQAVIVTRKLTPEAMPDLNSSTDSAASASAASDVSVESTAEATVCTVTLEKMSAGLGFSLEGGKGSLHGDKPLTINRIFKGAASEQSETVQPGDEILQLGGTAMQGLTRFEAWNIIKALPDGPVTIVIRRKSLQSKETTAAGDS
Chain of Cys residues in primary human T cells (Homo sapiens, UniProt Q96FV9) (Q96FV9 whole entry): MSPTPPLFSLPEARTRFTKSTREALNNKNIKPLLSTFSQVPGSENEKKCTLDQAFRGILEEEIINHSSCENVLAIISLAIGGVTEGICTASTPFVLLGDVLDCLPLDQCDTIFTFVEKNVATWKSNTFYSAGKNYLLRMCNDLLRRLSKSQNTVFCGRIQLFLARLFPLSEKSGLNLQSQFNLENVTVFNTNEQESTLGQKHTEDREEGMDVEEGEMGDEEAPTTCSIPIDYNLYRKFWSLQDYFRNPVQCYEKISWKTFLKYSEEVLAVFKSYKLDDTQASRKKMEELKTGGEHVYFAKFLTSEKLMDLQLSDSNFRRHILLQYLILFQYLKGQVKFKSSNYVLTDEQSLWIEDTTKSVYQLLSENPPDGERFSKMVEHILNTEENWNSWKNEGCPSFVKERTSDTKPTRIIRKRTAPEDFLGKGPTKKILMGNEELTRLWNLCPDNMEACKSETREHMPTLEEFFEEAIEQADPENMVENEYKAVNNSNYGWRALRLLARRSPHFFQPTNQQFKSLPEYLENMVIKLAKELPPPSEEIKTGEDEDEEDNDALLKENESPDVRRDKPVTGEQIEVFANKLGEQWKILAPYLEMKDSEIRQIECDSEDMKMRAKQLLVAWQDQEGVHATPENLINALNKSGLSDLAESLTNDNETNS
Chain of Cys residues in primary human T cells (Homo sapiens, UniProt Q8N2G8) (Q8N2G8 18-530): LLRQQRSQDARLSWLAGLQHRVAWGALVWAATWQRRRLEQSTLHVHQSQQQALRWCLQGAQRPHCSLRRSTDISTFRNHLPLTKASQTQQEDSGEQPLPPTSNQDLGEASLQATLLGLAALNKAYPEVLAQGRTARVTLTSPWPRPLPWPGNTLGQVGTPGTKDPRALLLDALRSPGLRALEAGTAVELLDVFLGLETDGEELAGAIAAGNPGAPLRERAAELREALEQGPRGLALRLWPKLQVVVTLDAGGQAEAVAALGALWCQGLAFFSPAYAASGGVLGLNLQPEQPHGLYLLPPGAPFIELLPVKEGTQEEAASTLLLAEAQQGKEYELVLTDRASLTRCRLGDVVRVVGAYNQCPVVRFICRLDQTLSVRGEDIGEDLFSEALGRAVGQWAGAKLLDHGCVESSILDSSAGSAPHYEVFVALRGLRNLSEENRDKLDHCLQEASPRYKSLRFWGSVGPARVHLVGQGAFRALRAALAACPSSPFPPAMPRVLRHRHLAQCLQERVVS
Chain of Cys residues in primary human T cells (Homo sapiens, UniProt O14976) (O14976 whole entry): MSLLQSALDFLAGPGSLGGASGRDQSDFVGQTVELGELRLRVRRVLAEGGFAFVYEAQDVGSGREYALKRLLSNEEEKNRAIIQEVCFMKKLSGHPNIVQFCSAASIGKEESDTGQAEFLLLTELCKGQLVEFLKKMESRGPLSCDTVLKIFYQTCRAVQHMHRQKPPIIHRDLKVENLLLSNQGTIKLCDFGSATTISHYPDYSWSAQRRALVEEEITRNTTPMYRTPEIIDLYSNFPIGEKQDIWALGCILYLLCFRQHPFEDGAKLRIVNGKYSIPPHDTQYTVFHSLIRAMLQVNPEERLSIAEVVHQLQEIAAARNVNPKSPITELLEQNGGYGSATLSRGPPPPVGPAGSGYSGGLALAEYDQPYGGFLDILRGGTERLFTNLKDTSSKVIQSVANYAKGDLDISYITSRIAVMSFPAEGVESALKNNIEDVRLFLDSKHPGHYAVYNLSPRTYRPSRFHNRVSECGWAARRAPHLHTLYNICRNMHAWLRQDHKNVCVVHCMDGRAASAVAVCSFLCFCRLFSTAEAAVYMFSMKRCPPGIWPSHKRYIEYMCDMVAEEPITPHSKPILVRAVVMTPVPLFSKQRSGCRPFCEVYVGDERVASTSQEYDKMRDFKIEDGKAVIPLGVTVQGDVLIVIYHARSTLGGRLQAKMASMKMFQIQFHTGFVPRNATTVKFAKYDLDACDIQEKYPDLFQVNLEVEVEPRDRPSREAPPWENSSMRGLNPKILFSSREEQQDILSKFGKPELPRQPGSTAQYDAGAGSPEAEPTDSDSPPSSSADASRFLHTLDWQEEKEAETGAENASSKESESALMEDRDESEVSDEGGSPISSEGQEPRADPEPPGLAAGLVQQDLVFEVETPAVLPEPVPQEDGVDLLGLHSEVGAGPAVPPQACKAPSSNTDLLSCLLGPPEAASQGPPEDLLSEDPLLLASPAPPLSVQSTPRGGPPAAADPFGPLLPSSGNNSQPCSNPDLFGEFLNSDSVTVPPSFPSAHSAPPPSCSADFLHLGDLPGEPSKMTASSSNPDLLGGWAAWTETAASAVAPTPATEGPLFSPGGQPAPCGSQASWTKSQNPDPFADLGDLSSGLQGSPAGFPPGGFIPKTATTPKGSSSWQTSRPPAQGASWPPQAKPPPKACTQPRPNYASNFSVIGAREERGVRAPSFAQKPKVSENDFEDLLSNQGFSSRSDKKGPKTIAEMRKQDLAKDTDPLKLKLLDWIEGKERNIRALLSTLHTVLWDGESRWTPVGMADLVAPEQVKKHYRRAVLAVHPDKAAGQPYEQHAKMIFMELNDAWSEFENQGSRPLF

Question: How did the “R value (DMSO/DMF)” value ([1]; DMF 10 μM 4h) turn out when `COC(=O)/C=C/C(=O)OC` [DMF, dimethyl fumarate] was run?
Answer: 1.84

Question: What about the “R value (DMSO/DMF)” value ([1]; DMF 25 μM 4h) of the same compound?
Answer: 2.86

Question: What about the “R value (DMSO/DMF)” value ([1]; DMF 50 μM 1h) of the same compound?
Answer: 2.23

Question: And the “R value (DMSO/DMF)” value ([1]; DMF 50 μM 2h)?
Answer: 4.16

Question: What about the “R value (DMSO/DMF)” value ([1]; DMF 50 μM 4h) of the same compound?
Answer: 5.3

Question: What about the “R value (DMSO/DMF)” value ([2]; DMF 10 μM 4h) of the same compound?
Answer: 2.1

Question: What about the “R value (DMSO/DMF)” value ([2]; DMF 25 μM 4h) of the same compound?
Answer: 2.17

Question: What about the “R value (DMSO/DMF)” value ([2]; DMF 50 μM 2h) of the same compound?
Answer: 4.57

Question: What about the “R value (DMSO/DMF)” value ([3]; DMF 50 μM 1h) of the same compound?
Answer: 4.23

Question: And the “R value (DMSO/DMF)” value ([3]; DMF 50 μM 2h)?
Answer: 20

Question: What about the “R value (DMSO/DMF)” value ([4]; DMF 10 μM 4h) of the same compound?
Answer: 1.37

Question: What about the “R value (DMSO/DMF)” value ([4]; DMF 50 μM 1h) of the same compound?
Answer: 1.95

Question: And the “R value (DMSO/DMF)” value ([4]; DMF 50 μM 2h)?
Answer: 3.32

Question: And the “R value (DMSO/DMF)” value ([4]; DMF 50 μM 4h)?
Answer: 4.13

Question: What about the “R value (DMSO/DMF)” value ([5]; DMF 10 μM 4h) of the same compound?
Answer: 1.36

Question: And the “R value (DMSO/DMF)” value ([5]; DMF 50 μM 2h)?
Answer: 4.79

Question: What about the “R value (DMSO/DMF)” value ([6]; DMF 10 μM 4h) of the same compound?
Answer: 1.61

Question: And the “R value (DMSO/DMF)” value ([6]; DMF 50 μM 2h)?
Answer: 3.29

Question: What about the “R value (DMSO/DMF)” value ([6]; DMF 50 μM 4h) of the same compound?
Answer: 4.05

Question: What about the “R value (DMSO/DMF)” value ([7]; DMF 50 μM 1h) of the same compound?
Answer: 3.93

Question: And the “R value (DMSO/DMF)” value ([7]; DMF 50 μM 2h)?
Answer: 5.7

Question: And the “R value (DMSO/DMF)” value ([8]; BCL2A1 C19 (Q16548), DMF 10 μM 4h)?
Answer: 1,15

Question: What about the “R value (DMSO/DMF)” value ([8]; BCL2A1 C19 (Q16548), DMF 25 μM 4h) of the same compound?
Answer: 2.19

Question: What about the “R value (DMSO/DMF)” value ([8]; BCL2A1 C19 (Q16548), DMF 50 μM 2h) of the same compound?
Answer: 2.09

Question: And the “R value (DMSO/DMF)” value ([8]; BCL2A1 C19 (Q16548), DMF 50 μM 4h)?
Answer: 4.16

Question: What about the “R value (DMSO/DMF)” value ([8]; BCL2A1 C55 (Q16548), DMF 50 μM 4h) of the same compound?
Answer: 7.18
